Experimental data published in the NIST ThermoML archive (doi:10.1021/je900732r).
Where “and” joins values, the source holds several entries; their conditions need not be identical. Equal values may be shown once.

Key:
[1] = Liquid; for mass density: 101 kPa
[2] = mn = molality of the nth substance listed, in mol/kg; details: 101 kPa, Liquid

C[S+](C)[O-] [dimethyl sulfoxide]
[1]
Details | mass density
293.15 K | 1100.22 kg/m3 and 1100.23 kg/m3
298.15 K | 1095.19 kg/m3 and 1095.2 kg/m3
303.15 K | 1090.17 kg/m3 and 1090.18 kg/m3
313.15 K | 1080.12 kg/m3 and 1080.12 kg/m3
323.15 K | 1070.08 kg/m3 and 1070.08 kg/m3
333.15 K | 1060.04 kg/m3 and 1060.03 kg/m3

CO [methanol]
[1]
Details | mass density
283.15 K | 800.55 kg/m3 and 800.541 kg/m3 and 800.548 kg/m3
288.15 K | 795.872 kg/m3 and 795.866 kg/m3 and 795.857 kg/m3
293.15 K | 791.172 kg/m3 and 791.169 kg/m3 and 791.162 kg/m3
298.15 K | 786.46 kg/m3 and 786.452 kg/m3 and 786.464 kg/m3
303.15 K | 781.742 kg/m3 and 781.733 kg/m3 and 781.722 kg/m3
308.15 K | 776.992 kg/m3 and 776.979 kg/m3 and 776.978 kg/m3
313.15 K | 772.214 kg/m3 and 772.189 kg/m3 and 772.2 kg/m3

Details | speed of sound [m/s]
[1], 298.15 K, 101.33 kPa, Pulse-echo method | 1101.2

[Ni+2].[O-][Cl+3]([O-])([O-])[O-].[O-][Cl+3]([O-])([O-])[O-] [nickel perchlorate] + C[S+](C)[O-]
mass density [kg/m3], [2]
Details | 293.15 K | 298.15 K | 303.15 K | 313.15 K | 323.15 K | 333.15 K
m1 = 0.01259 | 1102.91 | 1097.89 | 1092.88 | 1082.85 | 1072.82 | 1062.8
m1 = 0.01738 | 1103.94 | 1098.92 | 1093.91 | 1083.88 | 1073.87 | 1063.85
m1 = 0.02515 | 1105.61 | 1100.6 | 1095.59 | 1085.57 | 1075.56 | 1065.56
m1 = 0.03153 | 1106.98 | 1101.97 | 1096.96 | 1086.96 | 1076.96 | 1066.96
m1 = 0.03816 | 1108.41 | 1103.4 | 1098.4 | 1088.4 | 1078.41 | 1068.42
m1 = 0.051 | 1111.18 | 1106.18 | 1101.18 | 1091.2 | 1081.23 | 1071.27
m1 = 0.06341 | 1113.88 | 1108.88 | 1103.89 | 1093.92 | 1083.97 | 1074.01
m1 = 0.07675 | 1116.78 | 1111.79 | 1106.81 | 1096.86 | 1086.92 | 1076.99
m1 = 0.08797 | 1119.23 | 1114.24 | 1109.27 | 1099.34 | 1089.42 | 1079.5
m1 = 0.1004 | 1121.96 | 1116.98 | 1112.02 | 1102.1 | 1092.19 | 1082.3
m1 = 0.1126 | 1124.63 | 1119.67 | 1114.7 | 1104.8 | 1094.91 | 1085.03
m1 = 0.1251 | 1127.4 | 1122.43 | 1117.49 | 1107.6 | 1097.73 | 1087.86

[O-][Cl+3]([O-])([O-])[O-].[O-][Cl+3]([O-])([O-])[O-].[Zn+2] [zinc perchlorate] + C[S+](C)[O-]
mass density [kg/m3], [2]
Details | 293.15 K | 298.15 K | 303.15 K | 313.15 K | 323.15 K | 333.15 K
m1 = 0.0168 | 1103.88 | 1098.86 | 1093.85 | 1083.82 | 1073.81 | 1063.78
m1 = 0.02409 | 1105.47 | 1100.46 | 1095.45 | 1085.43 | 1075.43 | 1065.41
m1 = 0.02918 | 1106.59 | 1101.58 | 1096.56 | 1086.56 | 1076.56 | 1066.55
m1 = 0.03465 | 1107.79 | 1102.78 | 1097.78 | 1087.77 | 1077.77 | 1067.77
m1 = 0.05104 | 1111.38 | 1106.39 | 1101.39 | 1091.4 | 1081.43 | 1071.45
m1 = 0.06794 | 1115.12 | 1110.13 | 1105.14 | 1095.18 | 1085.22 | 1075.26
m1 = 0.08574 | 1119.08 | 1114.1 | 1109.12 | 1099.17 | 1089.23 | 1079.3
m1 = 0.1022 | 1122.78 | 1117.8 | 1112.83 | 1102.91 | 1092.99 | 1083.08
m1 = 0.119 | 1126.55 | 1121.58 | 1116.62 | 1106.7 | 1096.8 | 1086.9
m1 = 0.1435 | 1132.09 | 1127.14 | 1122.19 | 1112.3 | 1102.43 | 1092.57
m1 = 0.1684 | 1137.8 | 1132.85 | 1127.91 | 1118.05 | 1108.21 | 1098.37
